Data reported in paper PMC10861852, “Loss of activation by GABA in vertebrate delta ionotropic glutamate receptors” (Proceedings of the National Academy of Sciences of the …, 2024).

What was measured:
[1] = tested on: M805Q mutant AcaGluD; test: Two-electrode voltage clamp, ligand-gated currents in mutant-expressing oocytes
From the text: (§1) As the long CTD is implicated little in channel gating and more in expression and trafficking of iGluRs ([3]), we excluded it from this analysis. […] (Two of the mutants incorporated substitutions of two adjacent residues for efficiency.)

[2] = tested on: K782N mutant AcaGluD; test: as above
From the text: as §1

[3] = tested on: Q772D mutant AcaGluD; test: as above
From the text: as §1

[4] = tested on: DioGluD; test: Two-electrode voltage clamp, ligand-gated currents in oocytes; type: cell-based, Diopisthoporus longitubus; details: wild-type
[5] = biological target: T1, RatGluD1^AC (Rattus norvegicus, UniProt Q62640, A654C); test: Two-electrode voltage clamp, inhibition of constitutive current in oocytes; type: cell-based; details: A654C mutant receptor, n = 10
T1 construct: expressed in transfected cells; host or cells: Xenopus laevis oocytes injected with mRNA
T1 sequence (Q62640 21-1009 A654C): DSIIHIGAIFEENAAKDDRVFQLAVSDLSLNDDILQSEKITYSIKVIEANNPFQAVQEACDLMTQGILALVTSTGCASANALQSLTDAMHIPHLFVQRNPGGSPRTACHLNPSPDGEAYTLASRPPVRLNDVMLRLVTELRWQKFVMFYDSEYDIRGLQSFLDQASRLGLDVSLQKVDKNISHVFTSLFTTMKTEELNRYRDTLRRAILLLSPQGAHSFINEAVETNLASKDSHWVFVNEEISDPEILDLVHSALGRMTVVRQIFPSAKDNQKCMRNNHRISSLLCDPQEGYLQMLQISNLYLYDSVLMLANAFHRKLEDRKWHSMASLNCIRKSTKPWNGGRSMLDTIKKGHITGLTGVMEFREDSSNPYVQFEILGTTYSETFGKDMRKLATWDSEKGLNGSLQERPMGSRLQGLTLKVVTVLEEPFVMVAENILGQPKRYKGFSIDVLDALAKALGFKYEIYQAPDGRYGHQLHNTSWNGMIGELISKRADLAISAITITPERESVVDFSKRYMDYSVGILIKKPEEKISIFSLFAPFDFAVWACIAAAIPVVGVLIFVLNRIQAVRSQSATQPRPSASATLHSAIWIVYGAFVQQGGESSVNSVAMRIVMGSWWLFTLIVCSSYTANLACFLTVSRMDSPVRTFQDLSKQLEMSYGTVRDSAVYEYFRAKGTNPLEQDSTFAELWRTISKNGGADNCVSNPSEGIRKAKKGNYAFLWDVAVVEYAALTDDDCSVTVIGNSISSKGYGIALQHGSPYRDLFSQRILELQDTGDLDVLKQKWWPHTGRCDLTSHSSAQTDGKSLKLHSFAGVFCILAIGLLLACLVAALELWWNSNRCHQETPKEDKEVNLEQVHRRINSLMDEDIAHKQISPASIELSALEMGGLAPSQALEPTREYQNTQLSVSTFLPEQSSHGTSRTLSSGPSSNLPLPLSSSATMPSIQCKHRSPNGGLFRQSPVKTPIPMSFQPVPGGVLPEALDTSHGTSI

[6] = tested on: V806R mutant AcaGluD; test: Two-electrode voltage clamp, ligand-gated currents in mutant-expressing oocytes
From the text: as §1

[7] = tested on: DanGluD2A^Lc; test: Two-electrode voltage clamp, inhibition of constitutive current in oocytes; type: cell-based, Danio rerio; details: lurcher-mutant receptor
[8] = biological target: T2, AcaGluD (Acanthaster planci, UniProt A0A8B7XXR5); test: Two-electrode voltage clamp, ligand-gated currents in oocytes; type: cell-based
T2 sequence (A0A8B7XXR5 24-958): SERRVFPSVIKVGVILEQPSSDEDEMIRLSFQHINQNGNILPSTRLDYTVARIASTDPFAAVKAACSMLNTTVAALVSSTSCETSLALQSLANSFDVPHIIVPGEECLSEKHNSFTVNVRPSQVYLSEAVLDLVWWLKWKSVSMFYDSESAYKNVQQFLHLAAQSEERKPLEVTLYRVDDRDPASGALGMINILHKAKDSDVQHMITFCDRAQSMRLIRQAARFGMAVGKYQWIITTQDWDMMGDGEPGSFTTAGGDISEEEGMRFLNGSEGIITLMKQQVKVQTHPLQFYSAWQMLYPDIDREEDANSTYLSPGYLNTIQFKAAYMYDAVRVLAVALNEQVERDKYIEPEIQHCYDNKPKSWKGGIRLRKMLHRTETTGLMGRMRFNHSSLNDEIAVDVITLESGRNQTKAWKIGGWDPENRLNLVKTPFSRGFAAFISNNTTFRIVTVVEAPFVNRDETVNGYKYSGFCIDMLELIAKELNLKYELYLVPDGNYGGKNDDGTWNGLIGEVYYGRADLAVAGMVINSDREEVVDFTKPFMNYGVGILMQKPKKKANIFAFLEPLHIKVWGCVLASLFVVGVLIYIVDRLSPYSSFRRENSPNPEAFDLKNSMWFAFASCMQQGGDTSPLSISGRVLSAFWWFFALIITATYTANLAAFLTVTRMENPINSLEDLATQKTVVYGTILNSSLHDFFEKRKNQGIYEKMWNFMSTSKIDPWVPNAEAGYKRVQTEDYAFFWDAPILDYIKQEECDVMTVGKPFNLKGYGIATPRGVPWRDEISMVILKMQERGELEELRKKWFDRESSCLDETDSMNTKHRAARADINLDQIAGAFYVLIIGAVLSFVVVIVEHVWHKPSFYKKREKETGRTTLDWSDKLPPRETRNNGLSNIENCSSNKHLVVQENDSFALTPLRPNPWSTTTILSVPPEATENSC

[9] = biological target: T3, RatGluD2^Lc^-10x (Rattus norvegicus, UniProt Q63226, A654T/A686S/D753Q/K694R/N720P/N763K/P806D/Q786M/R787V/S544G/Y613F); test: Two-electrode voltage clamp, responses to ligands in mutant-expressing oocytes; type: cell-based; details: ligands 30 mM
T3 construct: expressed in transfected cells; host or cells: Xenopus laevis oocytes injected with mRNA
T3 sequence (Q63226 24-1007 S544G/Y613F/A654T/A686S/K694R/N720P/D753Q/N763K/Q786M/R787V/P806D): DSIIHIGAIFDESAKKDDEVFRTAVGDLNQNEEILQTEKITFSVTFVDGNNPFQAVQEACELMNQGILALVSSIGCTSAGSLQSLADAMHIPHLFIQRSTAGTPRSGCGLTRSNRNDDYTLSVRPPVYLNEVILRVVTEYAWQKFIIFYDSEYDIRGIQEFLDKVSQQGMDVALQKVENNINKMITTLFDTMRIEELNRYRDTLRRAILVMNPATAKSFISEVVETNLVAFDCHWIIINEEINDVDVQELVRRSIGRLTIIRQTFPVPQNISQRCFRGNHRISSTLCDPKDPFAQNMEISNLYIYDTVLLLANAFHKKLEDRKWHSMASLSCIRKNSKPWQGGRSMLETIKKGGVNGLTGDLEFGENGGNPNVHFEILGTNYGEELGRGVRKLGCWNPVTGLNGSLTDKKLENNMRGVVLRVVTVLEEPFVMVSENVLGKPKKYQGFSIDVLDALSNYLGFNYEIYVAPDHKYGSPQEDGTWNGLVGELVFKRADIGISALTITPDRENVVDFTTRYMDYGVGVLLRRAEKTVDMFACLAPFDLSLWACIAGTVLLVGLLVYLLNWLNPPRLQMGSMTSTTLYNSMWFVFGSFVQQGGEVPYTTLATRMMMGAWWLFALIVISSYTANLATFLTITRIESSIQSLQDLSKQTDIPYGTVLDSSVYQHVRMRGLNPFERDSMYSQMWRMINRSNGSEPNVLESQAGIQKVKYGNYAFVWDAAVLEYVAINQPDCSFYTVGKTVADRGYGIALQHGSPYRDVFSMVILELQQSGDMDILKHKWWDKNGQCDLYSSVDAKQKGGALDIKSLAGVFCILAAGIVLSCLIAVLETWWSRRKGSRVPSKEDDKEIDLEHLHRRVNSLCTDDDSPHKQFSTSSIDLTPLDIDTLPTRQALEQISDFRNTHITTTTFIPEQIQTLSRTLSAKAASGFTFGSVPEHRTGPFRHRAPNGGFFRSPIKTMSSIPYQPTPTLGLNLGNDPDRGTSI

[10] = tested on: AcaGluD^Rat^NTD; test: Two-electrode voltage clamp, ligand-gated currents in chimera-expressing oocytes; details: relative ligand-gated current amplitude, n = 3
From the text: (§2) To answer this, we measured ligand-gated currents in two chimeric AcaGluD constructs in which the NTD was replaced with that of RatGluD2: one retaining the NTD-LBD linker of AcaGluD, “AcaGluD^Rat^NTD”; and the other with the NTD-LBD linker of RatGluD2, “AcaGluD^Rat^NTDlink” (Fig. 4 A and B and SI Appendix, Supporting text).

[11] = tested on: AcaGluD^Rat^NTDlink; test: as above; details: relative ligand-gated current amplitude, n = 3
From the text: as §2

[12] = biological target: T4, RatGluD2^Lc^-9x (Rattus norvegicus, UniProt Q63226, A654T/A686S/D753Q/K694R/N720P/N763K/P806D/Q786M/R787V/Y613F); test: Two-electrode voltage clamp, responses to ligands in mutant-expressing oocytes; type: cell-based; details: ligands 30 mM; receptor inactive at rest
T4 construct: expressed in transfected cells; host or cells: Xenopus laevis oocytes injected with mRNA
T4 sequence (Q63226 24-1007 Y613F/A654T/A686S/K694R/N720P/D753Q/N763K/Q786M/R787V/P806D): as the sequence (Q63226 24-1007 S544G/Y613F/A654T/A686S/K694R/N720P/D753Q/N763K/Q786M/R787V/P806D) above, with G521S counted along it

Structure (SMILES)	maximum GABA-gated current amplitude [1]	maximum GABA-gated current amplitude [2]	maximum GABA-gated current amplitude [3]	ligand-elicited currents [4]	inactivation of constitutive current relative to D-serine [5]	maximum GABA-gated current amplitude [6]	inactivation of constitutive current relative to D-serine ([7]; n = 4)	EC50 ([8]; 0 Ca2+, n = 5)	maximum GABA-gated current amplitude ([8]; WT, mutant comparison (Fig. 5B), n = 4)	maximum ligand-gated current amplitude ([8]; in the presence of 1.8 mM Ca2+)	EC50 ([8]; ligand-gated current, 1.8 mM Ca2+ (regular bath solution), n = 5)	maximum ligand-gated current amplitude ([8]; nominally Ca2+-free solutions)	current response to ligand [9]	effect on constitutive currents [7]	relative efficacy [10]	relative efficacy [11]	relative efficacy ([8]; WT, relative ligand-gated current amplitude, n = 7)	current response to ligand [12]	EC50 ([8]; 0 Ca2+, n = 4)	EC50 ([8]; ligand-gated current, 1.8 mM Ca2+ (regular bath solution))
NCCCC(=O)O [GABA, γ-aminobutyric acid]	less than 1 μA	less than 1 μA	less than 1 μA	the only ligand that elicited currents	86 ± 5%	less than 1 μA	58 ± 8%	5 ± 0.6 µM	8.2 ± 1.1 μA	6.0 ± 1.0 µA	13 ± 3 µM	0.42 ± 0.13 µA	–	–	–	–	–	–	–	–
N[C@H](CO)C(=O)O [D-serine]	–	–	–	–	–	–	–	–	–	–	–	–	showed inward currents	inactivated	5 ± 1%	20 ± 3%	12 ± 3%	–	–	–
NCC(=O)O [glycine]	–	–	–	–	–	–	–	–	–	0.33 ± 0.01 µA	–	0.08 ± 0.01 µA	showed inward currents	inactivated	–	–	–	conducted inward currents	2000 ± 100 µM	2000 ± 100 µM
